The results in this text go back to patent publication US20260284005A1, “INHIBITING MITOGEN-ACTIVATED PROTEIN (MAP)/ERK KINASE (MEK)1 AND MEK2 AND RELATED METHODS OF TREATMENT” (priority 2023, published 2026).

Molecules are shown by their SMILES. Where two headings read alike, the source gives them in different places. Some results are limits rather than exact numbers.

For orientation: IC50 means the point on the concentration scale where inhibition reaches its midpoint.

The test system of one data set is CORL23 cells. Kind of data set: 3D-TGA. Format: cell-based. As to conditions: Homo sapiens, COR-L23, CORL23, LUN, KRAS G12V, ALK R317T, agent alone. The method, then:
(§1) Cells were seeded in 3D cultures in a black-walled, clear-bottom, non-tissue culture treated, 384-well plate (3000 cells per well) using a 1:1 mixture of BME and a custom media and grown in a humidified incubator with 5% CO2 and 5% O2, which approximates capillary levels for each gas, at 37° C. […] Cells were assessed for cell proliferation using EdU cell proliferation staining. […] Cells were permeabilized with 30 μL of filtered 0.5% Triton X-100 in PBS for 20 minutes at room temperature. Samples were washed twice gently with PBS. Cells were stained utilizing click-iT chemistry by adding 20 μL of staining cocktail containing 2 mM copper sulfate, 8 μM sulfo-Cy5-azide, and 20 mg/ml ascorbic acid in PBS and incubated 30-60 minutes at room temperature in dark. […] Plates were imaged with the Molecular Devices Pico ImageXpress. Images were segmented and percentage of cells with EdU incorporation was quantified to calculate antiproliferative effects of the drugs.
(§2) Five (5)-ethynyl-2′-deoxyuridine (EdU) data was represented as percentage EdU positive cells quantified by high content imaging from the Molecular Devices ImageXpress® Pico.

The subject of a further data set is NCI-H2087 cells. Kind of data set: 3D-TGA. Format: cell-based. The settings on record: Homo sapiens, NCI-H2087, LUN, NRAS Q61K, ALK S553A, agent alone. The method, then: as §1, §2
Data set [1] deals with tumor models (cell lines). Kind of data set: Humanized 3D tumor growth assay (3D-TGA), tumor model panel / other cell lines. As to conditions: Homo sapiens, agent alone. Format: cell-based, human.
Source text: The humanized 3D tumor growth assay (3D-TGA) is an extracellular matrix (ECM)-based, 3D tumor model that more faithfully mimics the human tumor microenvironment (TME) with the goal of improving translational fidelity to patients. See Casneuf T, et al., “Interleukin-6 is a potential therapeutic target in interleukin-6 dependent, estrogen receptor-α-positive breast cancer,” Breast Cancer (Dove Med Press). […] MEK inhibition in the 3D-TGA. […]
All cell lines were validated by IDEXX upon receipt and assay setup. See Appendix for full cell line list.
as §1, §2

A further data set has as its system A549 cells. The data set can be described thus: 3D-TGA. Format: cell-based, human. The settings on record: Homo sapiens; A549, LUN, KRAS G12S; agent alone; read-out: IC50 in 3D-TGA Talazoparib. Here is the method: as §1, §2
In another data set the test system is NCI-H1792 cells. Kind of data set: 3D-TGA. Format: cell-based, human. As to conditions: Homo sapiens, NCI-H1792, LUN, KRAS G12C.
Another data set concerns LU99 cells. The data set can be described thus: 3D-TGA. The settings on record: Homo sapiens, Lu-99, read-out: IC50 in 3D-TGA, KRAS G12C inhibitor alone. Format: cell-based, human. The method, then: as §1, §2
The test system of the next data set is NCI-H2122 cells. Kind of data set: 3D-TGA. As to conditions: Homo sapiens, NCI-H2122, read-out: IC50 in 3D-TGA, KRAS G12C inhibitor alone. Format: cell-based, human. Here is the method:
as §1, §2

The test system of a further data set is HCC-44 cells. The data set can be described thus: 3D-TGA. As to conditions: Homo sapiens, HCC44, read-out: IC50 in 3D-TGA, KRAS G12C inhibitor alone. Format: cell-based, human. The method, then:
as §1, §2

The test system of the next data set is NCI-H2030 cells. Kind of data set: 3D-TGA. Format: cell-based, human. As to conditions: Homo sapiens, NCI-H2030, read-out: IC50 in 3D-TGA, KRAS G12C inhibitor alone. Here is the method: as §1, §2
The test system of a further data set is NCI-H358 cells. Kind of data set: 3D-TGA. Format: cell-based, human. As to conditions: Homo sapiens; NCI-H358, LUN, KRAS G12C; read-out: IC50 in 3D-TGA, KRAS G12C inhibitor alone.
The subject of a further data set is SW626 cells. The data set can be described thus: 3D-TGA. Format: cell-based, human. The settings on record: Homo sapiens, SW626, read-out: IC50 in 3D-TGA, agent alone. Here is the method: as §1, §2
The next data set deals with LS1034 cells. The data set can be described thus: 3D-TGA. Format: cell-based, human. As to conditions: Homo sapiens, LS-1034; LS1034, COL, KRAS A146T; read-out: IC50 in 3D-TGA, agent alone. Here is the method:
as §1, §2

The test system of another data set is RCM-1 cells. The data set can be described thus: 3D-TGA. Format: cell-based, human. The settings on record: Homo sapiens, RCM-1, read-out: IC50 in 3D-TGA, agent alone. Here is the method:
as §1, §2

Another data set has as its system HT-29 cells. The data set can be described thus: 3D-TGA. Format: cell-based, human. The settings on record: Homo sapiens, HT-29, read-out: IC50 in 3D-TGA, agent alone. Here is the method: as §1, §2
The next data set relates to PANC-1 cells. The data set can be described thus: 3D-TGA. Format: cell-based, human. The settings on record: Homo sapiens; PANC-1, PAN, KRAS G12D; read-out: IC50 in 3D-TGA, agent alone. Here is the method: as §1, §2
The test system of the next data set is SNU-1197 cells. Kind of data set: 3D-TGA. Format: cell-based, human. The settings on record: Homo sapiens, read-out: IC50 in 3D-TGA, agent alone. Here is the method: as §1, §2
The subject of the next data set is CL-40 cells. Kind of data set: 3D-TGA. Format: cell-based, human. The settings on record: Homo sapiens, read-out: IC50 in 3D-TGA, agent alone. Here is the method: as §1, §2
The subject of data set [2] is MIA PaCa-2 (KRAS G12C) pancreatic xenograft. The data set can be described thus: MIA PaCa-2 pancreatic xenograft tumor model. Format: in vivo, athymic nude mice. As to conditions: MIA PaCa-2 KRAS G12C xenograft, 21 days. The text has this:
Gemcitabine (antimetabolite), nab-paclitaxel (taxane) and fluorouracil (5-FU; antimetabolite) were commercially purchased. All studies started with 12 animals, per group. Mice within specific groups randomized for cross-over of treatments (≥day 42). […] Additive models: MIA PaCa-2, PA-TU-8988S, CFPAC-1, HPAF-II, Panc 03.27, PSN-1, Panc 10.05, Capan-1, HPAC, PANC-1.

Setting [3] is: read-out: IC50 in 3D-TGA Lorlatinib.
Setting [4] is: read-out: IC50 in 3D-TGA, KRAS G12C inhibitor alone.
Where [5] appears, read: read-out: IC50 in 3D-TGA Brigatinib.

For `C[C@H]1Oc2cc(cnc2N)-c2c(nn(C)c2C#N)CN(C)C(=O)c2ccc(F)cc21` [Lorlatinib], the IC50 in the data set with CORL23 cells (setting [3]) and with NCI-H2087 cells (setting [3]) was 1000 nM in each case.
Regarding `Nc1ncn([C@@H]2O[C@H](CO)[C@@H](O)[C@H]2O)c(=O)n1` [Azacitidine, azacitidine], the half-maximal inhibitory concentration (IC50) is 1000 nM in data set [1] (HL-60, HL-60, AML, NRAS Q61L, read-out: IC50 in 3D-TGA Azacitidine); 100 to 500 nM in data set [1] (KHM-1B, MM, NRAS G12C/KRAS G12C, read-out: IC50 in 3D-TGA Azacitidine); 1000 nM in data set [1] (NB4, AML, KRAS Amp, read-out: IC50 in 3D-TGA Azacitidine); 1000 nM in data set [1] (OCI-AML-3, OCI-AML3, AML, NRAS Q61L, read-out: IC50 in 3D-TGA Azacitidine); 500 to 1000 nM in [1] (PL-21, PL-21, AML, KRAS A146V, read-out: IC50 in 3D-TGA Azacitidine); 1000 nM in data set [1] (TF-1, AML, NRAS Q61P, read-out: IC50 in 3D-TGA Azacitidine). The IC50 in data set [1] (THP-1, THP-1, AML, NRAS G12D, read-out: IC50 in 3D-TGA Azacitidine) is 1000 nM.
Consider `Cn1ncnc1[C@H]1c2n[nH]c(=O)c3cc(F)cc(c23)N[C@@H]1c1ccc(F)cc1` [Talazoparib, talazoparib], for which the 50% inhibitory concentration (IC50) in the data set on A549 cells was > 1000 nM; in data set [1] (HL-60, HL-60, AML, NRAS Q61L, read-out: IC50 in 3D-TGA Talazoparib), > 1000 nM; in [1] (NCI-H1734, NCI-H1734, LUN, KRAS G13C, read-out: IC50 in 3D-TGA Talazoparib), > 1000 nM; in data set [1] (THP-1, THP-1, AML, NRAS G12D, read-out: IC50 in 3D-TGA Talazoparib), > 1000 nM; in the data set with NCI-H1792 cells (agent alone, read-out: IC50 in 3D-TGA Talazoparib), 500 to 1000 nM.
In the case of `C=C(F)C(=O)N1CCN(c2nc(OC[C@@H]3CCCN3C)nc3c2CCN(c2cccc4cccc(Cl)c24)C3)C[C@@H]1CC#N` [adagrasib], the IC50 in the data set with LU99 cells is > 1000 nM; in the data set on NCI-H2122 cells, > 1000 nM; in the data set on HCC-44 cells, > 1000 nM; in the data set with NCI-H2030 cells it was < 50 nM; in the data set with NCI-H358 cells, 50 to 100 nM; in the data set on NCI-H1792 cells (setting [4]), > 1000 nM.
Consider `COc1cc(N2CCC(N3CCN(C)CC3)CC2)ccc1Nc1ncc(Cl)c(Nc2ccccc2P(C)(C)=O)n1` [Brigatinib, brigatinib], for which the IC50 in the data set on CORL23 cells (setting [5]) and in the data set with NCI-H2087 cells (setting [5]) was 1000 nM each time.
Regarding `CC(=O)O[C@H]1C(=O)[C@@]2(C)[C@H]([C@H](OC(=O)c3ccccc3)[C@]3(O)C[C@H](OC(=O)[C@H](O)[C@@H](NC(=O)c4ccccc4)c4ccccc4)C(C)=C1C3(C)C)[C@]1(OC(C)=O)CO[C@@H]1C[C@@H]2O` [Paclitaxel, paclitaxel], the IC50 in the data set with SW626 cells was < 50 nM; in the data set with LS1034 cells it was 1000 nM; in the data set on RCM-1 cells, 100 to 500 nM; in the data set with HT-29 cells it was < 50 nM; with PANC-1 cells it was 1000 nM; in the data set on SNU-1197 cells, 100 to 500 nM. For the same compound, in the data set on CL-40 cells, the IC50 was < 50 nM.
With `CC(C)C[C@H](NC(=O)[C@H](Cc1ccccc1)NC(=O)c1cnccn1)B(O)O` [Bortezomib, bortezomib], the half-inhibitory concentration (IC50) is 500 to 1000 nM in data set [1] (KHM-1B, MM, NRAS G12C/KRAS G12C, read-out: IC50 in 3D-TGA Bortezomib); 1000 nM in data set [1] (L-363, L-363, MM, NRAS Q61H, read-out: IC50 in 3D-TGA Bortezomib); 50 to 100 nM in [1] (MM1.S, MM.1S, MM, KRAS G12A, read-out: IC50 in 3D-TGA Bortezomib); 100 to 500 nM in data set [1] (RPMI-8226, RPMI-8226, MM, KRAS G12A, read-out: IC50 in 3D-TGA Bortezomib).
On to `Nc1ncn([C@H]2C[C@H](O)[C@@H](CO)O2)c(=O)n1` [Decitabine, decitabine], for which the IC50 in data set [1] (HL-60, HL-60, AML, NRAS Q61L, read-out: IC50 in 3D-TGA Decitabine) is 1000 nM; in [1] (NB4, AML, KRAS Amp, read-out: IC50 in 3D-TGA Decitabine), 1000 nM; in [1] (OCI-AML-3, OCI-AML3, AML, NRAS Q61L, read-out: IC50 in 3D-TGA Decitabine), 1000 nM; in [1] (PL-21, PL-21, AML, KRAS A146V, read-out: IC50 in 3D-TGA Decitabine) it was 1000 nM; in data set [1] (TF-1, AML, NRAS Q61P, read-out: IC50 in 3D-TGA Decitabine) it was 50 nM; in data set [1] (THP-1, THP-1, AML, NRAS G12D, read-out: IC50 in 3D-TGA Decitabine), 1000 nM.
`C=CC(=O)N1CCN(c2nc(=O)n(-c3c(C)ccnc3C(C)C)c3nc(-c4c(O)cccc4F)c(F)cc23)[C@@H](C)C1` [sotorasib]: the IC50 with LU99 cells is > 1000 nM; in the data set on NCI-H2122 cells, > 1000 nM; with HCC-44 cells, > 1000 nM; in the data set with NCI-H2030 cells, < 50 nM; in the data set on NCI-H358 cells, 100 to 500 nM; in the data set with NCI-H1792 cells (setting [4]), > 1000 nM. For the same compound, the BWL result in data set [2] is reported as “insignificant BWL”.
Regarding `COc1cccc2c1C(=O)c1c(O)c3c(c(O)c1C2=O)C[C@@](O)(C(C)=O)C[C@@H]3O[C@H]1C[C@H](N)[C@H](O)[C@H](C)O1` [Daunorubicin, daunorubicin], the half-maximal inhibitory concentration (IC50) in data set [1] (HL-60, HL-60, AML, NRAS Q61L, read-out: IC50 in 3D-TGA Daunorubicin) came out at 67.6 nM; in [1] (NB4, AML, KRAS Amp, read-out: IC50 in 3D-TGA Daunorubicin) it was 63.2 nM; in data set [1] (OCI-AML-3, OCI-AML3, AML, NRAS Q61L, read-out: IC50 in 3D-TGA Daunorubicin) it was 28 nM; in data set [1] (PL-21, PL-21, AML, KRAS A146V, read-out: IC50 in 3D-TGA Daunorubicin), 64.1 nM; in data set [1] (TF-1, AML, NRAS Q61P, read-out: IC50 in 3D-TGA Daunorubicin), 56.2 nM; in data set [1] (THP-1, THP-1, AML, NRAS G12D, read-out: IC50 in 3D-TGA Daunorubicin), 119 nM.
